Measurements taken from ChEMBL document CHEMBL5500383, “Recent advances and future directions on small molecule VEGFR inhibitors in oncological conditions” (Eur J Med Chem, 2024).

Legend:
PC-3 [1] = assay: Cytotoxicity against human PC-3 cells assessed as reduction in cell viability incubated for 72 hrs by MTT assay; assay type: functional, cell-based; conditions: PC-3, 72 h
DU-145 = assay: Cytotoxicity against human DU-145 cells assessed as reduction in cell viability incubated for 72 hrs by MTT assay; assay type: functional, cell-based; conditions: DU-145, 72 h
MDA-MB-435 = assay: Cytotoxicity against human MDA-MB-435 cells assessed as reduction in cell growth measured for 72 hrs by MTT assay; assay type: functional, cell-based; conditions: MDA-MB-435, 72 h
[2] = target: T1, Vascular endothelial growth factor receptor 2 (Homo sapiens, UniProt P35968); assay: Inhibition of human VEGFR2 by discoverX kinome scan assay
T1 sequence (P35968 whole entry): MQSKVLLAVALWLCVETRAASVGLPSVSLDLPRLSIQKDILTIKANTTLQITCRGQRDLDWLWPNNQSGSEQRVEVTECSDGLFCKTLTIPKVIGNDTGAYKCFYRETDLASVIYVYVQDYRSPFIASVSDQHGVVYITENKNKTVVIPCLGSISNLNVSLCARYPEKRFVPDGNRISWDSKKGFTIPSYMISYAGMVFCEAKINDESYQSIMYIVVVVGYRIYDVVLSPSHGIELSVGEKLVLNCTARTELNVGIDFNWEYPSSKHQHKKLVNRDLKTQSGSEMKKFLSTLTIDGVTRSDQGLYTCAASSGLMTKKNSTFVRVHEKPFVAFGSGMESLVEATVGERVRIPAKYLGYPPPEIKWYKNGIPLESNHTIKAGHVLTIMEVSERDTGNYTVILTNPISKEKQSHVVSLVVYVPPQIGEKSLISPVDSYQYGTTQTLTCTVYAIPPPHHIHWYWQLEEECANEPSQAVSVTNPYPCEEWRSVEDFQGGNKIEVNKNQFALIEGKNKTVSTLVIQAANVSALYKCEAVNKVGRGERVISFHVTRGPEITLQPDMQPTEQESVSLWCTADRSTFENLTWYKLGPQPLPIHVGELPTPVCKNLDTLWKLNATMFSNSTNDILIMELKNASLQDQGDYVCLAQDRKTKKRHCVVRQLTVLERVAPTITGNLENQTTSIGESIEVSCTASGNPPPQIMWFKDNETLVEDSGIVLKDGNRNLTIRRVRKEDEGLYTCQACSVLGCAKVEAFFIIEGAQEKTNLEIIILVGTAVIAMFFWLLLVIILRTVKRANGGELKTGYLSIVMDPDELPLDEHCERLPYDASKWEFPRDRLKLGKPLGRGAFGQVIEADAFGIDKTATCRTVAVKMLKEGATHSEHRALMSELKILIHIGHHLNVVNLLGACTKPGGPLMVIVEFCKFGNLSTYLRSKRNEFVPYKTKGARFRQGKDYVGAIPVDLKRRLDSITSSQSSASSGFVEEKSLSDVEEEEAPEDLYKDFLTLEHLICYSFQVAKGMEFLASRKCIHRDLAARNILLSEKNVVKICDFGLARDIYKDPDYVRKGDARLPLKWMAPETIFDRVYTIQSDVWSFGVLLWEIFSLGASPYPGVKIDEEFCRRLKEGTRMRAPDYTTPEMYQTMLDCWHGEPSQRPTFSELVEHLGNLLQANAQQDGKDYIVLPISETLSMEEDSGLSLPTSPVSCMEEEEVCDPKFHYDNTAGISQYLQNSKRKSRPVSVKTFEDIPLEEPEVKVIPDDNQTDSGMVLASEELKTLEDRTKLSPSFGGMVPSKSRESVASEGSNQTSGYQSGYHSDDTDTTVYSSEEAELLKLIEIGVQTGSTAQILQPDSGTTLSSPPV

HepG2 [3] = assay: Antiproliferative activity against human HepG2 cells assessed as reduction in cell growth by MTT assay; assay type: functional, cell-based
HCT-116 [4] = assay: Antiproliferative activity against human HCT-116 cells assessed as reduction in cell growth by MTT assay; assay type: functional, cell-based
MCF7 [5] = assay: Antiproliferative activity against human MCF7 cells assessed as reduction in cell growth by MTT assay; assay type: functional, cell-based
HCT-116 [6] = assay: Cytotoxicity against human HCT-116 cells assessed as reduction in cell viability by SRB assay; assay type: functional, cell-based
HepG2 [7] = assay: Cytotoxicity against human HepG2 cells assessed as reduction in cell viability by SRB assay; assay type: functional, cell-based
MCF7 [8] = assay: Cytotoxicity against human MCF7 cells assessed as reduction in cell viability by SRB assay; assay type: functional, cell-based
PC-9 = assay: Growth inhibition of human PC-9 cells; assay type: functional
HCC827 = assay: Growth inhibition of human HCC827 cells; assay type: functional
HepG2 [9] = assay: Cytotoxicity against human HepG2 cells assessed as reduction in cell viability; assay type: functional, cell-based
HCT-116 [10] = assay: Cytotoxicity against human HCT-116 cells assessed as reduction in cell viability; assay type: functional, cell-based
[11] = Cytotoxicity against African green monkey Vero cells assessed as reduction in cell viability incubated for 72 hrs by crystal violet staining based analysis; assay type: toxicity, Chlorocebus sabaeus
MCF7 [12] = assay: Cytotoxicity against human MCF7 cells assessed as reduction in cell growth incubated for 48 hrs by MTT assay; assay type: functional, cell-based; conditions: MCF7, 48 h
PC-3 [13] = assay: Antiproliferative activity against human PC-3 cells assessed as reduction in cell growth; assay type: functional, cell-based
PC-3 [14] = assay: Cytotoxicity against human PC-3 cells assessed as reduction in cell growth; assay type: toxicity, cell-based
HOP-92 = assay: Growth inhibition of human HOP-92 cells incubated for 48 hrs by sulforhodamine B assay; assay type: functional
[15] = target: Serine/threonine-protein kinase B-raf (Homo sapiens, UniProt P15056); assay: Inhibition of wild type BRAF (unknown origin)
Serine/threonine-protein kinase B-raf (Homo sapiens, UniProt P15056), sequence (P15056 whole entry): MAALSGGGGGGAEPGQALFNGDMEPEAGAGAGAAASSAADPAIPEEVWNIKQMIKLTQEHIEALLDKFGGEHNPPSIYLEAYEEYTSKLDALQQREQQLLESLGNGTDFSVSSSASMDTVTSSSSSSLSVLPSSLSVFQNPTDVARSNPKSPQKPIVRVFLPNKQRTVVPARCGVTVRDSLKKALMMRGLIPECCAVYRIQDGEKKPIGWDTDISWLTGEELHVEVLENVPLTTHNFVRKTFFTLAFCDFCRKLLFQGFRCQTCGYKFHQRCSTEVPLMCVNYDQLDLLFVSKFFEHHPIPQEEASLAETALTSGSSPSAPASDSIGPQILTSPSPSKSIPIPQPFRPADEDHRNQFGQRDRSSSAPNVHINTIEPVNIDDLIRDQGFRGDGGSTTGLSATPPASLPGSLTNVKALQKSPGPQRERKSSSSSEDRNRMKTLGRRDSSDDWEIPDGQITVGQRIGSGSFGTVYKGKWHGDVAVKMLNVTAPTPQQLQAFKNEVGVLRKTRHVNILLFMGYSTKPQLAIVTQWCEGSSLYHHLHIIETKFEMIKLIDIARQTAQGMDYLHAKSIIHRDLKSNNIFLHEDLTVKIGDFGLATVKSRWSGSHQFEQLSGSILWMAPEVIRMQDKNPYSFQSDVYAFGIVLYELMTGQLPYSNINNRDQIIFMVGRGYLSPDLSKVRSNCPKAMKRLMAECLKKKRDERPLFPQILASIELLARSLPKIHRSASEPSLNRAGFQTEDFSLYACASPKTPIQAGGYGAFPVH

[16] = target: Serine/threonine-protein kinase B-raf (Homo sapiens, UniProt P15056, V600E); assay: Inhibition of BRAF V600E mutant (unknown origin)
Serine/threonine-protein kinase B-raf (Homo sapiens, UniProt P15056, V600E), sequence (P15056 2-766 V600E limits assumed): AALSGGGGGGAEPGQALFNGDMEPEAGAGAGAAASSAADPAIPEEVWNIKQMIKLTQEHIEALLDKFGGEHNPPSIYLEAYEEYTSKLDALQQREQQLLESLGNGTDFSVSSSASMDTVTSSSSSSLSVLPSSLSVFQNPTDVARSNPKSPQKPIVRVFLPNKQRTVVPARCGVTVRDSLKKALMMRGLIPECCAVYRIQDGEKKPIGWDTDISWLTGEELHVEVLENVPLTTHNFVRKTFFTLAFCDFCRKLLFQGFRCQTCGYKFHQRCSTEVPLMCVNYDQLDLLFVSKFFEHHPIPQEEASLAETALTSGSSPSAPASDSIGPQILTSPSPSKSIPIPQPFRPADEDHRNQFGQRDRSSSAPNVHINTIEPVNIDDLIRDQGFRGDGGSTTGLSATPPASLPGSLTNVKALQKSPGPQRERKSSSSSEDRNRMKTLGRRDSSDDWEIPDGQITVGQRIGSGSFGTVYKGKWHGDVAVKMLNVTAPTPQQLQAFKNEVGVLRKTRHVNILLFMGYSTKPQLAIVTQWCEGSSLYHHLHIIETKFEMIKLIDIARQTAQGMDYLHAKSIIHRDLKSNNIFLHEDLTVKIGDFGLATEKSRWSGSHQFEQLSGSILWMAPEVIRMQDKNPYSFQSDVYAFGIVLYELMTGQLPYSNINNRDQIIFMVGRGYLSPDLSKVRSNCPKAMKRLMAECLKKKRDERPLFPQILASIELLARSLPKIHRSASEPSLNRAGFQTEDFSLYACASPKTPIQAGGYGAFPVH

[17] = target: RAF proto-oncogene serine/threonine-protein kinase (Homo sapiens, UniProt P04049); assay: Inhibition of C-RAF (unknown origin)
RAF proto-oncogene serine/threonine-protein kinase, sequence (P04049 whole entry): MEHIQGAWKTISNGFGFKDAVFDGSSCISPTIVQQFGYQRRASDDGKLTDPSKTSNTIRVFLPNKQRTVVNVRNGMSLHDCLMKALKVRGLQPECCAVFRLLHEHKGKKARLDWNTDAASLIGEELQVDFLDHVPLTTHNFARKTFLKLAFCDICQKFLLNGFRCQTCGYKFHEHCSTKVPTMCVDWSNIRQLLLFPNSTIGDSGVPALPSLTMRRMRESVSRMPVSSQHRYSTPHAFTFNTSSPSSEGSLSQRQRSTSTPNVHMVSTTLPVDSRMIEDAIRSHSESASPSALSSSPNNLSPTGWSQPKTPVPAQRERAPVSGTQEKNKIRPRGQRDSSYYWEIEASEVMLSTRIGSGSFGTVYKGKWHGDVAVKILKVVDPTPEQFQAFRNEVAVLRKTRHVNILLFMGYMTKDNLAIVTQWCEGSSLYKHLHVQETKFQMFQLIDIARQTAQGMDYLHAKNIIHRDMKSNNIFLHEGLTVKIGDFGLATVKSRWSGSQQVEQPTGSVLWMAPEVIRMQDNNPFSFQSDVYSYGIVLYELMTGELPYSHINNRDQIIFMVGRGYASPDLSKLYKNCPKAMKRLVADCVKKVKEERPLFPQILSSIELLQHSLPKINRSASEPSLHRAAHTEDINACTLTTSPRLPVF

A549 = assay: Antiproliferative activity against human A549 cells; assay type: functional, cell-based
PC-3 [18] = assay: Antiproliferative activity against human PC-3 cells; assay type: functional, cell-based
HepG2 [19] = assay: Antiproliferative activity against human HepG2 cells assessed as reduction in cell growth after 72 hrs by MTT assay; assay type: functional, cell-based; conditions: HepG2, 72 h
HCT-116 [20] = assay: Antiproliferative activity against human HCT-116 cells assessed as reduction in cell viability measured after 72 hrs by MTT assay; assay type: functional, cell-based; conditions: HCT-116, 72 h
A-375 = assay: Antiproliferative activity against human A-375 cells assessed as reduction in cell viability measured after 72 hrs by MTT assay; assay type: functional, cell-based; conditions: A-375, 72 h
MCF7 [21] = assay: Antiproliferative activity against human MCF7 cells assessed as reduction in cell viability measured after 72 hrs by MTT assay; assay type: functional, cell-based; conditions: MCF7, 72 h
MIA PaCa-2 = assay: Antiproliferative activity against human MIA PaCa-2 cells assessed as inhibition of cell growth incubated for 48 hrs by MTS assay; assay type: functional, cell-based; conditions: MIA PaCa-2, 48 h
[22] = Inhibition of VEGFR (unknown origin); design: species or system Homo sapiens
[23] = target: T1, Vascular endothelial growth factor receptor 2; assay: Inhibition of VEGFR2 (unknown origin)
[24] = target: Epidermal growth factor receptor (Homo sapiens, UniProt P00533); assay: Inhibition of EGFR (unknown origin)
Epidermal growth factor receptor, sequence (P00533 whole entry): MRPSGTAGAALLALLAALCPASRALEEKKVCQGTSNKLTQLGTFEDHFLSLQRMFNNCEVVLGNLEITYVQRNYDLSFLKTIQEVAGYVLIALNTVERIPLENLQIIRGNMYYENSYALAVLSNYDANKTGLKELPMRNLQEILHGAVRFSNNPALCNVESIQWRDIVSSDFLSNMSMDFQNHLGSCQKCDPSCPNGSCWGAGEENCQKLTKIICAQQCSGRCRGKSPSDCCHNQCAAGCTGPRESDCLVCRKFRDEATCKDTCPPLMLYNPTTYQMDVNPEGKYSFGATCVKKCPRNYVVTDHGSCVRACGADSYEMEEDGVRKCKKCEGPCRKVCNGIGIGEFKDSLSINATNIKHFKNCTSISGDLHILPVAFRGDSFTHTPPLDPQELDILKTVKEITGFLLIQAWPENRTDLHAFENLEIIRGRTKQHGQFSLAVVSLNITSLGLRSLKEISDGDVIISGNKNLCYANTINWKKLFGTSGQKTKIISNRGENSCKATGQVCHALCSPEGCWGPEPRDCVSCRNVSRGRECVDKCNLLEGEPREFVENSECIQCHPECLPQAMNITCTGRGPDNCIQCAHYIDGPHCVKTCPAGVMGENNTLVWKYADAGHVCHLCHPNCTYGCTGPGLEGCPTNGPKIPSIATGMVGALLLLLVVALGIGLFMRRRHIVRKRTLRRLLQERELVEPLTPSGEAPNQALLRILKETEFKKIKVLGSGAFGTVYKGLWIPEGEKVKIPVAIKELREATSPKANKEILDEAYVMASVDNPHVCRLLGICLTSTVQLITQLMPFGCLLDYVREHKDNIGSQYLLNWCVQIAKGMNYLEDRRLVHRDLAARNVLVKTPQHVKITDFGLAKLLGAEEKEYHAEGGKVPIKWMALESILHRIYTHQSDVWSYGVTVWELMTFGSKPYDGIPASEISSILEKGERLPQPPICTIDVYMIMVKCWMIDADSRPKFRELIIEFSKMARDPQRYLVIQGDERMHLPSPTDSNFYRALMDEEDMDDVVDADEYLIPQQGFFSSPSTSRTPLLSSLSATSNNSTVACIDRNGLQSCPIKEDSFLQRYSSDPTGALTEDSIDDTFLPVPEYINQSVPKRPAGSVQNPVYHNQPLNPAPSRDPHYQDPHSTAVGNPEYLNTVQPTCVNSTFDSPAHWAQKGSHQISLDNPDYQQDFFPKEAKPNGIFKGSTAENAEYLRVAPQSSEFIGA

HepG2 [25] = assay: Antiproliferative activity against human HepG2 cells; assay type: functional, cell-based
MCF7 [26] = assay: Antiproliferative activity against human MCF7 cells; assay type: functional, cell-based
HCT-116 [27] = assay: Antiproliferative activity against human HCT-116 cells; assay type: functional, cell-based
MDA-MB-231 = assay: Antiproliferative activity against human MDA-MB-231 cells; assay type: functional, cell-based
Caco-2 [28] = assay: Antiproliferative activity against human Caco-2 cells; assay type: functional, cell-based
HepG2 [29] = assay: Antiproliferative activity against human HepG2 cells assessed as cell growth inhibition incubated for 24 hrs by MTT assay; assay type: functional, cell-based; conditions: HepG2, 24 h
PC-3 [30] = assay: Antiproliferative activity against human PC-3 cells assessed as cell growth inhibition incubated for 24 hrs by MTT assay; assay type: functional, cell-based; conditions: PC-3, 24 h
HepG2 [31] = assay: Antiproliferative activity against human HepG2 cells assessed as reduction in cell growth; assay type: functional, cell-based
Caco-2 [32] = assay: Antiproliferative activity against human Caco-2 cells assessed as reduction in cell growth; assay type: functional, cell-based
MCF7 [33] = assay: Antiproliferative activity against human MCF7 cells assessed as inhibition of cell growth; assay type: functional, cell-based
PC-3 [34] = assay: Antiproliferative activity against human PC-3 cells assessed as inhibition of cell growth; assay type: functional, cell-based
[35] = target: Serine/threonine-protein kinase pim-1 (Homo sapiens, UniProt P11309); assay: Inhibition of PIM-1 (unknown origin)
Serine/threonine-protein kinase pim-1, sequence (P11309 whole entry): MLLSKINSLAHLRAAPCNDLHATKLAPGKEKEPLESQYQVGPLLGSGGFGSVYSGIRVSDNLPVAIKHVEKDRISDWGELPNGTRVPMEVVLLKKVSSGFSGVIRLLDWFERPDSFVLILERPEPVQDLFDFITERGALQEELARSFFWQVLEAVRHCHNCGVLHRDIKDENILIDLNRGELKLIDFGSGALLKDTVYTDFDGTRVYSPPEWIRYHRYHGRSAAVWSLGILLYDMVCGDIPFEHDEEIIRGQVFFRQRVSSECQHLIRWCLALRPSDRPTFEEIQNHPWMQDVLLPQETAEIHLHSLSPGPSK

[36] = target: T1, Vascular endothelial growth factor receptor 2; assay: Inhibition of VEGFR2 (unknown origin) incubated for 1 hr in presence of ATP by ELISA method
SF-539 = assay: Antiproliferative activity against human SF-539 cells assessed as inhibition of cell growth at 10 uM after 48 hrs by sulforhodamine B assay relative to control; assay type: functional; design: scale not given: the % may be the effect or the level left

SMILES: COc1cc(-c2cc(-c3ccc4ccccc4c3)nc(NN)c2C#N)ccc1O
- IC50 (PC-3 [1]): 55 nM
- IC50 (DU-145): 8.5 nM
- IC50 (MDA-MB-435): 96 nM

SMILES: O=C(N/N=C/c1ccc(Cl)cc1)c1ccc(Nc2ncnc3sc4c(c23)CCCC4)cc1
- IC50 [2]: 230 nM
- IC50 (HepG2 [3]): 4100 nM
- IC50 (HCT-116 [4]): 2800 nM
- IC50 (MCF7 [5]): 10300 nM
- IC50 (HCT-116 [6]): 2800 nM
- IC50 (HepG2 [7]): 4100 nM
- IC50 (MCF7 [8]): 10300 nM

SMILES: NC(=O)CCn1cc(-c2ccc3ncnc(Nc4cc(O)c(F)cc4F)c3c2)nn1
- GI50 (PC-9): 6000 nM
- GI50 (HCC827): 1300 nM

SMILES: Cc1nc2ccccc2n(CC(=O)Nc2ccc(C(=O)NCc3ccccc3)cc2)c1=O
- IC50 (HepG2 [9]): 5300 nM
- IC50 (HCT-116 [10]): 2200 nM
- IC50 at 72 h [11]: 11800 nM

SMILES: CC1=NN(c2ccc([N+](=O)[O-])cc2[N+](=O)[O-])C(=O)/C1=C\c1cn(-c2ccccc2)nc1-c1cccc([N+](=O)[O-])c1
- IC50 (MCF7 [12]): 16500 nM

SMILES: N#CCc1nnc(NC(=O)c2ccco2)s1
- IC50 (PC-3 [13]): 9.1 nM
- IC50 (PC-3 [14]): 68.7 nM

SMILES: Cc1ccc(S(=O)(=O)Nc2ccc(-c3cc(-c4cccc(F)c4)c(C#N)c(N)n3)cc2)cc1
- GI50 (HOP-92): 1060 nM

SMILES: O=C(CSc1nc2ccccc2c(=O)n1-c1ccc(Cl)cc1)Nc1ccc(-c2nc3ccccc3[nH]2)cc1
- IC50 [15]: 20 nM
- IC50 [16]: 2 nM
- IC50 [17]: 100 nM
- IC50 (A549): 100 nM
- IC50 (PC-3 [18]): 100 nM
- IC50 (HepG2 [19]): 100 nM
- IC50 (HCT-116 [20]): 100 nM
- IC50 (A-375): 100 nM
- IC50 (MCF7 [21]): 100 nM
- IC50 (MIA PaCa-2): 100 nM
- IC50 [22]: > 100000 nM

SMILES: COc1ccc(-c2cc(-c3ccc(C)cc3)nc(NN)n2)cc1
- IC50 [23]: 98 nM
- IC50 [24]: 71 nM
- IC50 (HepG2 [25]): 18300 nM
- IC50 (MCF7 [26]): 7800 nM
- IC50 (HCT-116 [27]): 31000 nM
- IC50 (MDA-MB-231): 23700 nM
- IC50 (Caco-2 [28]): 12800 nM

SMILES: COc1ccc(-c2cc(-c3ccc(OC)c(OC)c3)c3c(N)c(C(=O)c4ccc(C)cc4)sc3n2)cc1OC
- IC50 [23]: 5870 nM
- IC50 (HepG2 [29]): 6 nM
- IC50 (PC-3 [30]): 19 nM
- IC50 (HepG2 [31]): 6 nM
- IC50 (Caco-2 [32]): 20 nM
- IC50 (MCF7 [33]): 10 nM
- IC50 (PC-3 [34]): 10 nM
- IC50 [35]: 7950 nM

SMILES: CNC(=O)c1nc(Nc2ccc(NC(=O)Nc3cccc(OC)c3)cc2)c2ccccc2n1
- IC50 [36]: 40300 nM
- Activity (SF-539): 47.8%
